Earlier results, collected in patent US20230390244A1, “MODIFIED RELEASE COMPOSITIONS COMPRISING MELATONIN” (Inventia Healthcare Limited, priority 2020, published 2023).

Tests used:
[1] = not given; remark: listed apart in the source

## COc1ccc2[nH]cc(CCNC(C)=O)c2c1 [Melatonin, N-acetyl-5-methoxytryptamine]
immediate-release formulation, depending on dose
  time within which plasma concentrations decline: ≤ 1.5 h
In vivo
  half-life: 40 to 50 min
[1]; acetone, ethyl acetate and methanol
  solubility in organic solvents: soluble
[1]; water
  solubility in water: slightly soluble
